Where a name gives a salt, the structure may show the parent alone. Read-outs that look alike come from different tables or passages of the source.
Columns and labels:
[1] = molecular target: T1, MMP-2 (Homo sapiens, UniProt P08253); experiment: In vitro MMP inhibition, Ki determination (fluorogenic substrate II); format: biochemical
T1 construct: made in house; host or cells: MMP-2-transfected p2AHT2 cells
T1 sequence (P08253 110-660): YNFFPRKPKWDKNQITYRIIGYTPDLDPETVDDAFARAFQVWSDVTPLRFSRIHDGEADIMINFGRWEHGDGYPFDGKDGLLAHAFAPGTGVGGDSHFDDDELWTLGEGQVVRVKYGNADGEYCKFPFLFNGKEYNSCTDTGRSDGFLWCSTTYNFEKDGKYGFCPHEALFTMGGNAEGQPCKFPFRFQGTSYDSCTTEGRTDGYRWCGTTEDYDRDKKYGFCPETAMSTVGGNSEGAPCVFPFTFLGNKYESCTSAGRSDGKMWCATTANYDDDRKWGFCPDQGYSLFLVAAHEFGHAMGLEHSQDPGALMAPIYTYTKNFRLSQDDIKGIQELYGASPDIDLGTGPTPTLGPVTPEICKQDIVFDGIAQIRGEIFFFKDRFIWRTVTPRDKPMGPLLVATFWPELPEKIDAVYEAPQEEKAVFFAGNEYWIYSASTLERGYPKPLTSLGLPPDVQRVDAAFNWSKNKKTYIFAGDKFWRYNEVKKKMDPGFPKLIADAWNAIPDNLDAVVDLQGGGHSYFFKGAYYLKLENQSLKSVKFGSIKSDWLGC
Description: (§1) Several hydroxamic acids and salts thereof were analyzed in in vitro assays to determine their ability to inhibit the MMP cleavage of peptide substrates. […] and IC50 constants were calculated from the assayed hydroxamic acid-MMP interactions.
(§2) Human recombinant MMP-1, MMP-2, MMP-9, MMP-13, and MMP-14 were used in this assay. All enzymes were prepared in Assignee's laboratories following usual laboratory procedures. Protocols for the preparation and use of these enzymes are available in the scientific literature. See, e.g., Enzyme Nomenclature (Academic Press, San Diego, Calif., 1992) (and the citations therein). See also, Freije et al., “Molecular cloning and expression of collagenase-3, a novel human matrix metalloproteinase produced by breast carcinomas,” J Biol. Chem., 269(24), 16766-16773 (1994).
The MMP-2 proenzyme was purified by gelatin Sepharose chromatography from MMP-2-transfected p2AHT2 cells provided by Dr. Gregory Goldberg of Washington University (St. Louis, Mo.).
(§3) All MMPs were activated using 4-aminophenylmercuric acetate (“APMA”, Sigma Chemical, St. Louis, Mo.) or trypsin. MMP-9 also was activated using human recombinant MMP-3 (purified in Assignee's laboratory following standard cloning and purification techniques).
(§4) Two fluorogenic, methoxycoumarin-containing polypeptide substrates were used in the MMP inhibition assays: [drawing 427] Here, “Dpa” is 3-(2,4-dinitrophenyl)-L-2,3-diaminopropionyl group, and “MCA” is 7-methoxycoumarin-4-yl acetyl. Substrate (I) was purchased from Baychem (Redwood City, Calif.), and substrate II was prepared Assignee's laboratory. Substrate I was used in the IC50 determination assays, while substrate II was used in the Ki determination assays. In the absence of MMP inhibitory activity, either substrate is cleaved at the Gly-Leu peptide bond. This cleavage separates the highly fluorogenic peptide from the 2,4-dinitrophenyl quencher, thus resulting in increase of fluorescent intensity.
(§5) The stock solutions of the assayed hydroxamic acids (or salts thereof) were prepared in 1% dimethyl sulfoxide (DMSO). These stock solutions were diluted in Buffer A (100 mM Tris-HCl, 100 mM NaCl, 10 mM CaCl2, 0.05% polyoxyethylene 23 lauryl ether, pH 7.5) to obtain solutions with different hydroxamic acid concentrations, i.e., assay solutions with different concentrations of the assayed MMP inhibitory compound. The experiment controls contained the same amount of Buffer A/DMSO as the assayed sample, but contained no hydroxamic acid (or salt thereof).
The assays from which the Ki determinations were made were performed as follows. The assayed hydroxamic acid samples were incubated in separate wells of untreated white polystyrene plates (Nunc Nalgene International, Rochester, N.Y.), and analyzed on a Tecan SpectraFlour Plus plate reader. The excitation wavelength was 330 nm, and the emission wavelength—420 nm. All samples (assayed hydroxamic acids and controls) were incubated in separate plate wells at room temperature for 1 hr in the presence of 4 μM of MMP substrate (II). In the absence of MMP inhibitory activity, substrate II was cleaved at the Gly-Leu bond resulting in an increase of relative fluorescence. Inhibition was observed as a reduced rate of this increase in relative fluorescence. The various hydroxamic acids were analyzed using a single low enzyme concentration with a single substrate concentration fixed at or below the Km. This protocol is a modification of method by Knight et al., FEBS Lett., 296(3), 263-266 (1992). Apparent inhibitory constants were determined by non-linear regression of reaction velocity as a function of inhibitor and enzyme concentration using Morrison's equation, as described by Kuzmic, Anal. Biochem. 286, 45-50 (2000). […] Since the substrate concentration was chosen to be at or below the Km, the apparent Ki's from this analysis were reported as Ki's without correction for the influence of substrate.

[2] = molecular target: T2, MMP-14 (Homo sapiens, UniProt P50281); experiment: as above; format: biochemical
T2 construct: The catalytic domain enzyme was expressed in E. coli inclusion bodies, solubilized in urea; made in house
Description: as §1, §2
The MMP-14 full length cDNA was provided by Dr. Gregory Goldberg of Washington University (St. Louis, Mo.). The catalytic domain enzyme was expressed in E. coli inclusion bodies, solubilized in urea, purified on a preparative […] reverse phase HPLC column, and then refolded in the presence of zinc acetate and purified for use.
as §3, §4, §5
The assays from which the Ki determinations were made were performed as follows. The assayed hydroxamic acid samples were incubated in separate wells of untreated white polystyrene plates (Nunc Nalgene International, Rochester, N.Y.), and analyzed on a Tecan SpectraFlour Plus plate reader. The excitation wavelength was 330 nm, and the emission wavelength—420 nm. All samples (assayed hydroxamic acids and controls) were incubated in separate plate wells at room temperature for 1 hr in the presence of 4 μM of MMP substrate (II). In the absence of MMP inhibitory activity, substrate II was cleaved at the Gly-Leu bond resulting in an increase of relative fluorescence. Inhibition was observed as a reduced rate of this increase in relative fluorescence. The various hydroxamic acids were analyzed using a single low enzyme concentration with a single substrate concentration fixed at or below the Km. This protocol is a modification of method by Knight et al., FEBS Lett., 296(3), 263-266 (1992). Apparent inhibitory constants were determined by non-linear regression of reaction velocity as a function of inhibitor and enzyme concentration using Morrison's equation, as described by Kuzmic, Anal. Biochem. 286, 45-50 (2000).

[3] = human recombinant enzyme, 4 μM substrate II, room temperature, 1 hr, read-out: MMP-2 Ki
[4] = human recombinant enzyme (catalytic domain), 4 μM substrate II, room temperature, 1 hr, read-out: MMP-14 Ki
[5] = value not in parenthesis, read-out: MMP-2 Ki
[6] = value not in parenthesis, read-out: MMP-14 Ki
[7] = MMP-2 Ki, value not in parenthesis
[8] = MMP-14 Ki, value not in parenthesis

Row | Structure (SMILES) | Ki [1, 3] [nM] | Ki [2, 4] [nM] | further results
1 | O=C(NO)C1(S(=O)(=O)N2CCC(c3ccc(CCC(F)(F)C(F)(F)F)cc3)CC2)CCOCC1 [Example 18, N-hydroxy-4-({4-[4-(3,3,4,4,4-pentafluorobutyl)phenyl]piperidin-1-yl}sulfonyl)tetrahydro-2H-pyran-4-carboxamide] | 0.565 | 1770 | –
2 | CCCCc1ccc(C2CCN(S(=O)(=O)C3(C(=O)NO)CCOCC3)CC2)s1 [Example 19, 4-{[4-(5-butylthien-2-yl)piperidin-1-yl]sulfonyl}-N-hydroxytetrahydro-2H-pyran-4-carboxamide] | 2.06 | 2190 | –
3 | COCCN1CCC(C(=O)NO)(S(=O)(=O)N2CCC(c3ccc(OCCCC(F)(F)F)cc3)CC2)CC1 [Example 20, N-hydroxy-1-(2-methoxyethyl)-4-({4-[4-(4,4,4-trifluorobutoxy)phenyl]piperidin-1-yl}sulfonyl)piperidine-4-carboxamide Hydrochloride] | 0.83 | 2670 | –
4 | CCCCCc1ccc(N2CCN(S(=O)(=O)C3(C(=O)NO)CCN(C(=O)C(F)(F)F)CC3)CC2)cc1 [Example 21, N-hydroxy-4-{[4-(4-pentylphenyl)piperazin-1-yl]sulfonyl}-1-(trifluoroacetyl)piperidine-4-carboxamide Hydrochloride] | 3.82 | 6910 | –
5 | CCCCCc1ccc(N2CCN(S(=O)(=O)C3(C(=O)NO)CCN(CC)CC3)CC2)cc1F [Example 22, 1-ethyl-4-{[4-(3-fluoro-4-pentylphenyl)piperazin-1-yl]sulfonyl}-N-hydroxypiperidine-4-carboxamine Hydrochloride] | 3.19 | 9320 | –
6 | CCCCCc1ccc(N2CCN(S(=O)(=O)C3(C(=O)NO)CCOCC3)CC2)c(F)c1 [Example 23, 4-{[4-(2-fluoro-4-pentylphenyl)piperazin-1-yl]sulfonyl}-N-hydroxytetrahydro-2H-pyran-4-carboxamide Hydrochloride] | 8.25 | > 10000 | –
7 | CCCCc1ccc(C2CCN(S(=O)(=O)C3(C(=O)NO)CCN(C4CC4)CC3)CC2)nc1 [Example 24, 4-{[4-(5-butylpyridin-2-yl)piperidin-1-yl]sulfonyl}-1-cyclopropyl-N-hydroxypiperidine-4-carboxamide Hydrochloride] | 0.91 | 2900 | –
8 | O=C(NO)C1(S(=O)(=O)N2CCC(c3ccc(OCC(F)(F)F)cc3)CC2)CCN(C2CC2)CC1 [Example 25, 1-cyclopropyl-N-hydroxy-4-({4-[4-(2,2,2-trifluoroethoxy)phenyl]piperidin-1-yl}sulfonyl)piperidine-4-carboxamide Hydrochloride] | 1.18 | 5380 | –
9 | CCCCCCCCC1CCN(S(=O)(=O)C2(C(=O)NO)CCOCC2)CC1 [Example 26, 4-(4-octyl-piperidine-1-sulfonyl)-tetrahydro-pyran-4-carboxylic Acid Hydroxyamide] | 0.78 | 657 | –
10 | O=C(NO)C1(S(=O)(=O)N2CCC(c3cnc(OCC(F)(F)C(F)(F)F)cn3)CC2)CCOCC1 [Example 27] | 0.59 | 6200 | –
11 | CCCCCc1cnc(N2CCN(S(=O)(=O)C3(C(=O)NO)CCOCC3)CC2)s1 [Example 56] | – | – | Ki [1, 5]: 1.02 nM; Ki [2, 6]: 795 nM
12 | O=C(NO)C1(S(=O)(=O)N2CCN(c3ccc(-c4ccc(Cl)cc4)cn3)CC2)CCOCC1 [Example 60] | – | – | Ki [1, 5]: 0.54 nM; Ki [2, 6]: 328 nM
13 | O=C(NO)C1(S(=O)(=O)N2CCN(c3ccc(COCC(F)(F)C(F)(F)C(F)(F)C(F)F)cc3)CC2)CCOCC1 [Example 68] | – | – | Ki [1, 7]: 4.69 nM; Ki [2, 8]: > 10000 nM
14 | O=C(NO)C1(S(=O)(=O)N2CCN(c3ccc(COCC(F)(F)C(F)(F)C(F)(F)F)cc3)CC2)CCOCC1 [Example 69] | – | – | Ki [1, 7]: 5.44 nM; Ki [2, 8]: > 10000 nM
15 | C=CCCOC(=O)N1CCC(C(=O)NO)(S(=O)(=O)N2CCN(c3ccc(OCCCC)cc3)CC2)CC1 [Example 101] | – | – | Ki [1, 5]: 1.64 nM; Ki [2, 6]: 4330 nM
16 | COCCN1CCC(C(=O)NO)(S(=O)(=O)N2CCN(c3ccc(OCCCC(F)(F)F)cc3F)CC2)CC1 [Example 102] | – | – | Ki [1, 5]: 1.25 nM; Ki [2, 6]: 7130 nM
